The values below come from BindingDB's records for doi:10.1021/jm00163a033 (University of Massachusetts Medical School, 1990).

One assay addresses Thymidine kinase (Human herpesvirus 2). As to the kind of experiment: Inhibition of TdR phosphorylation using thymidine kinase (TK) assay for herpes simplex virus type 2 (HSV-2).
Take `O=c1[nH]c(NCCCCCO)nc2nc[nH]c12`: the IC50 (in general, the concentration needed to halve the response being measured) stood at 40 µM.
Compound `O=c1[nH]c(Nc2ccc3ccccc3c2)nc2nc[nH]c12` displayed an IC50 of 10 µM.
Still for that read-out and setting: the figure for `O=c1[nH]c(Nc2ccc(C(F)(F)F)cc2)nc2nc[nH]c12` is 40 µM; for `O=c1[nH]c(NCc2ccc(Cl)cc2)nc2nc[nH]c12` it is 5.5 µM.
`O=c1[nH]c(Nc2cccc(CO)c2)nc2nc[nH]c12` came in with an IC50 of 20 µM.
The compound `O=c1[nH]c(Nc2ccc(O)cc2)nc2nc[nH]c12` gave an IC50 of 20 µM.
For `O=c1[nH]c(Nc2ccc(Br)cc2)nc2nc[nH]c12`, inhibition was half-maximal at 0.6 µM (IC50).
Still for that read-out and setting: the figure for `O=c1[nH]c(Nc2ccc(F)c(Cl)c2)nc2nc[nH]c12` is 2.5 µM; for `O=c1[nH]c(Nc2ccc(Br)c(Br)c2)nc2nc[nH]c12` it is 1.3 µM; for `Cc1ccc(Nc2nc3nc[nH]c3c(=O)[nH]2)cc1` it is 6 µM.
`O=c1[nH]c(Nc2ccc(F)c(F)c2)nc2nc[nH]c12` showed an IC50 of 2.2 µM.
Same read-out and setting: the figure for `O=c1[nH]c(Nc2cccc(Cl)c2)nc2nc[nH]c12` is 0.35 µM; for `CCc1cccc(Nc2nc3nc[nH]c3c(=O)[nH]2)c1` it is 4 µM.
In turn, `O=c1[nH]c(Nc2cccc(C(F)(F)F)c2)nc2nc[nH]c12` [2-(3-Trifluoromethyl-phenylamino)-1,9-dihydro-purin-6-one] gave an IC50 of 0.1 µM.
For the compound `CCCCCCNc1nc2nc[nH]c2c(=O)[nH]1` [2-Hexylamino-1,9-dihydro-purin-6-one], the IC50 came to 10 µM.

For a further assay the target is unchanged. The description is as above. The source holds these as a separate data set.
Turning to `CCCCCCNC1=NC(=O)C2N=CN([C@H]3C[C@H](O)[C@@H](CO)O3)C2=N1` (stereo partly specified), affinity was put at a Ki of 2 µM.
